Tests used:
[1] = test system: factor VII; experiment: Factor VII knock down evaluation (LNP with FVII siRNA); format: in vivo, Balb/C mice; details: Table 2, plasma FVII after 48 h vs saline control; for FVII KD % 0.01 mpk: 0.01 mpk i.v.; for FVII KD % 0.03 mpk: 0.03 mpk i.v.
Method: Lipid formulations comprising a FVII siRNA further described below were evaluated for their knockdown activity using the protocol of this example. In the FVII evaluation, seven to eight week-old, female Balb/C mice were purchased from Charles River Laboratories (Hollister, CA). The mice were held in a pathogen-free environment and all procedures involving the mice were performed in accordance with guidelines established by the Institutional Animal Care and Use Committee (IACUC). Lipid nanoparticles containing factor VII siRNA were administered intravenously at a dosing volume of 10 mL/kg and two dose levels (0.03 and 0.01 mg/kg). After 48 h, the mice were anesthetized with isoflurane and blood was collected retro-orbitally into Microtainer® tubes coated with 0.109 M sodium citrate buffer (BD Biosciences, San Diego, CA) and processed to plasma. Plasma specimens were tested for factor VII levels immediately or stored at −80° C. for later analysis. Measurement of FVII protein in plasma was determined using the colorimetric Biophen VII assay kit (Aniara Diagnostica, USA). Absorbance was measured at 405 nm and a calibration curve was generated using the serially diluted control plasma to determine levels of factor VII in plasma from treated animals, relative to the saline-treated control animals.

[2] = test system: hEPO; experiment: hEPO mRNA expression evaluation (hEPO-LNPs); format: in vivo, Balb/c mice; details: Table 2; 0.1 mpk i.v., serum hEPO after 6 hr
Method: Protocol for hEPO mRNA Expression Evaluation
Lipid formulations comprising a hEPO mRNA below were evaluated for their ability to express hEPO in vivo according to the protocol of this example. All animal experiments were conducted using institutionally-approved protocols (IACUC). In this protocol, female Balb/c mice at least 6-8 weeks of age were purchased from Charles River Laboratory. […] After 6 hr, blood was collected with serum separation tubes, and the serum was isolated by centrifugation. Serum hEPO levels were then measured using an ELISA assay (Human Erythropoietin Quantikine IVD ELISA Kit, R&D Systems, Minneapolis, MD).

[3] = Mouse plasma stability; format: in vitro ADME, CD-1 mouse; details: Table 2, mouse plasma 37 C, 1 uM lipid
Method: Lipid stock solution was prepared by dissolution of the lipid in isopropanol at the concentration of 5 mg/mL. A requisite volume of the lipid-isopropanol solution was then diluted to 100 μM concentration at a total volume of 1.0 mL with in 50:50 (v/v) ethanol/water. Ten microliters of this 100 μM solution was spiked into 1.0 mL of mouse plasma (BioIVT, Cat. No.: MSE00PLNHUNN, CD-1 mouse, anticoagulant: sodium heparin, not filtered) that was pre-warmed to 37° C. and was stirred at 50 rpm with a magnetic stir bar. The starting concentration of lipids in plasma was thus 1 μM. At time points 0, 15, 30, 45, 60 and 120 min, 0.1 mL of the plasma was withdrawn from the reaction mixture and the protein was precipitated by adding 0.9 mL of ice-cold 4:1 (v/v) acetonitrile/methanol with 1 μg/mL of a selected internal standard lipid added. After filtration through a 0.45 micron 96-well filtering plate, the filtrates were analyzed by LC-MS (Thermo Fisher's Vanquish UHPLC—LTQ XL linear ion trap Mass Spectrometer); Waters XBridge BEH Shield RP18 2.5 micron (2.1×100 mm) column with its matching guard column. Mobile phase A was 0.1% formic acid in water, and mobile phase B was 0.1% formic acid in 1:1 (v/v) acetonitrile/methanol. Flow rate was 0.5 ml/min. Elution gradient was: Time 0-1 min: 10% B; 1-6 min: 10%-95% B; 6-8.5 min: 95% B; 8.5-9 min: 95%-10% B; 9-10 min: 10% B. Mass spectrometry was in positive scanning mode from 600-1100 m/z. The peak of the molecular ion of the lipids was integrated in the extracted ion chromatography (XIC) using Xcalibur software (Thermo Fisher). The relative peak area compared to T=0, after normalization by the peak area of the internal standard, was used as the percentage of the lipid remaining at each time point. T1/2 values were calculated using the first-order decay model.

[4] = In vivo biodegradability assay (lipid in liver); details: Table 2, mouse liver, 48 h

CC1CCC(CCC(=O)OCC(C)(COC(=O)CCC2CCC(C)CC2)COC(=O)CCN(CCC(=O)OCC(C)(COC(=O)CCC2CCC(C)CC2)COC(=O)CCC2CCC(C)CC2)C(=O)SCCCN(C)C)CC1 (stereo not drawn) [LIPID 20]
FVII KD % 0.01 mpk [1]: 36% | FVII KD % 0.03 mpk [1]: 74% | EPO exprssn (ng/mL) 0.1 mpk [2]: 1148 ng/mL | Percent remaining in mouse plasma after 2 h [3]: 100% | In vivo degradability (ng/tissue) at 48h 0.03 mpk [4]: <340 ng/tissue | In vivo degradability (ng/tissue) at 48h 0.1 mpk [4]: <340 ng/tissue

CCCCCCC(C)C(=O)OCC(COC(=O)C(C)CCCCCC)OC(=O)CCCN(CCCC(=O)OC(COC(=O)C(C)CCCCCC)COC(=O)C(C)CCCCCC)C(=O)NCCCN(C)C (stereo not drawn) [LIPID 36, [2-[4-[3-(dimethylamino)propylcarbamoyl-[4-[2-(2-methyloctanoyloxy)-1-(2-methyloctanoyloxymethyl)ethoxy]-4-oxo-butyl]amino]butanoyloxy]-3-(2-methyloctanoyloxy)propyl]2-methyloctanoate]
FVII KD % 0.01 mpk [1]: 0% | FVII KD % 0.03 mpk [1]: 0% | EPO exprssn (ng/mL) 0.1 mpk [2]: 0 ng/mL

CCCCC(C)(C)CC(=O)OCC(C)(COC(=O)CCN(CCC(=O)OCC(C)(COC(=O)CC(C)(C)CCCC)COC(=O)CC(C)(C)CCCC)C(=O)SCCCN(C)C)COC(=O)CC(C)(C)CCCC [LIPID 23]
FVII KD % 0.01 mpk [1]: 17% | FVII KD % 0.03 mpk [1]: 61.7% | EPO exprssn (ng/mL) 0.1 mpk [2]: 730 ng/mL | Percent remaining in mouse plasma after 2 h [3]: 100% | In vivo degradability (ng/tissue) at 48h 0.03 mpk [4]: <340 ng/tissue | In vivo degradability (ng/tissue) at 48h 0.1 mpk [4]: <340 ng/tissue

CCCCCCCCC(=O)OCC(COC(=O)CCCCCCCC)COC(=O)CCN(CCC(=O)OCC(COC(=O)CCCCCCCC)COC(=O)CCCCCCCC)C(=O)SCCN(C)C [LIPID 26]
FVII KD % 0.01 mpk [1]: 8% | FVII KD % 0.03 mpk [1]: 50% | EPO exprssn (ng/mL) 0.1 mpk [2]: 70 ng/mL | Percent remaining in mouse plasma after 2 h [3]: 100% | In vivo degradability (ng/tissue) at 48h 0.03 mpk [4]: BLOQ | In vivo degradability (ng/tissue) at 48h 0.1 mpk [4]: BLOQ

CC1CCC(CCC(=O)OCC(COC(=O)CCC2CCC(C)CC2)COC(=O)CCN(CCC(=O)OCC(COC(=O)CCC2CCC(C)CC2)COC(=O)CCC2CCC(C)CC2)C(=O)SCCCN(C)C)CC1 (stereo not drawn) [LIPID 27]
FVII KD % 0.01 mpk [1]: 48.1% | FVII KD % 0.03 mpk [1]: 84.9% | EPO exprssn (ng/mL) 0.1 mpk [2]: 69 ng/mL | Percent remaining in mouse plasma after 2 h [3]: 100% | In vivo degradability (ng/tissue) at 48h 0.03 mpk [4]: BLOQ | In vivo degradability (ng/tissue) at 48h 0.1 mpk [4]: BLOQ

CCCCCCC(C)C(=O)OCC(COC(=O)C(C)CCCCCC)OC(=O)CCCN(CCCC(=O)OC(COC(=O)C(C)CCCCCC)COC(=O)C(C)CCCCCC)C(=O)OCCCN(C)C (stereo not drawn) [LIPID 35, [2-[4-[3-(dimethylamino)propoxycarbonyl-[4-[2-(2-methyloctanoyloxy)-1-(2-methyloctanoyloxymethyl)ethoxy]-4-oxo-butyl]amino]butanoyloxy]-3-(2-methyloctanoyloxy)propyl]2-methyloctanoate]
FVII KD % 0.01 mpk [1]: 68.5% | FVII KD % 0.03 mpk [1]: 84% | EPO exprssn (ng/mL) 0.1 mpk [2]: 678 ng/mL

CCC1CCC(C(=O)OCC(C)(COC(=O)CCN(CCC(=O)OCC(C)(COC(=O)C2CCC(CC)CC2)COC(=O)C2CCC(CC)CC2)C(=O)SCCCN(C)C)COC(=O)C2CCC(CC)CC2)CC1 (stereo not drawn) [LIPID 22]
FVII KD % 0.01 mpk [1]: 56% | FVII KD % 0.03 mpk [1]: 87% | EPO exprssn (ng/mL) 0.1 mpk [2]: 1104 ng/mL | Percent remaining in mouse plasma after 2 h [3]: 100% | In vivo degradability (ng/tissue) at 48h 0.03 mpk [4]: <340 ng/tissue | In vivo degradability (ng/tissue) at 48h 0.1 mpk [4]: <340 ng/tissue

CCCCCCCC(=O)OCC(C)(COC(=O)CCCCCCC)COC(=O)CCN(CCC(=O)OCC(C)(COC(=O)CCCCCCC)COC(=O)CCCCCCC)C(=O)SCCCN(C)C [LIPID 24]
FVII KD % 0.01 mpk [1]: 60.5% | FVII KD % 0.03 mpk [1]: 87.4% | EPO exprssn (ng/mL) 0.1 mpk [2]: 1420 ng/mL | Percent remaining in mouse plasma after 2 h [3]: 100% | In vivo degradability (ng/tissue) at 48h 0.03 mpk [4]: BLOQ | In vivo degradability (ng/tissue) at 48h 0.1 mpk [4]: BLOQ

CCCCCCCCC(=O)OCC(COC(=O)CCCCCCCC)COC(=O)CCCN(CCCC(=O)OCC(COC(=O)CCCCCCCC)COC(=O)CCCCCCCC)C(=O)SCCCN(C)C [LIPID 25]
FVII KD % 0.01 mpk [1]: 63% | FVII KD % 0.03 mpk [1]: 95% | EPO exprssn (ng/mL) 0.1 mpk [2]: 2945 ng/mL | Percent remaining in mouse plasma after 2 h [3]: 100% | In vivo degradability (ng/tissue) at 48h 0.03 mpk [4]: BLOQ | In vivo degradability (ng/tissue) at 48h 0.1 mpk [4]: BLOQ

CN(C)CCCSC(=O)N(CCCC(=O)OC(COC(=O)C1CCC2CCCC2C1)COC(=O)C1CCC2CCCC2C1)CCCC(=O)OC(COC(=O)C1CCC2CCCC2C1)COC(=O)C1CCC2CCCC2C1 (stereo not drawn) [LIPID 30, ((4,4′-((((3-(dimethylamino)propyl)thio)carbonyl)azanediyl)bis (butanoyl))bis(oxy))bis(propane-2,1,3-triyl)tetrakis(octahydro-1H-indene-5-carboxylate)]
FVII KD % 0.01 mpk [1]: 3.2% | FVII KD % 0.03 mpk [1]: 62.1% | EPO exprssn (ng/mL) 0.1 mpk [2]: 95 ng/mL | Percent remaining in mouse plasma after 2 h [3]: 100% | In vivo degradability (ng/tissue) at 48h 0.03 mpk [4]: BLOQ | In vivo degradability (ng/tissue) at 48h 0.1 mpk [4]: BLOQ

CN(C)CCCSC(=O)N(CCCC(=O)OC(COC(=O)C1CC2CCCCC2C1)COC(=O)C1CC2CCCCC2C1)CCCC(=O)OC(COC(=O)C1CC2CCCCC2C1)COC(=O)C1CC2CCCCC2C1 (stereo not drawn) [LIPID 28]
FVII KD % 0.01 mpk [1]: 26% | FVII KD % 0.03 mpk [1]: 75.3% | EPO exprssn (ng/mL) 0.1 mpk [2]: 216 ng/mL | Percent remaining in mouse plasma after 2 h [3]: 100% | In vivo degradability (ng/tissue) at 48h 0.03 mpk [4]: BLOQ | In vivo degradability (ng/tissue) at 48h 0.1 mpk [4]: BLOQ

Cc1ccc(CCC(C)C(=O)OCC(COC(=O)C(C)CCc2ccc(C)cc2)OC(=O)CCCN(CCCC(=O)OC(COC(=O)C(C)CCc2ccc(C)cc2)COC(=O)C(C)CCc2ccc(C)cc2)C(=O)SCCCN(C)C)cc1 (stereo not drawn) [LIPID 41, ((4,4′-((((3-(dimethylamino)propyl)thio)carbonyl)azanediyl)bis (butanoyl))bis(oxy))bis(propane-2,1,3-triyl)tetrakis(2-methyl-4-(p-tolyl)butanoate)]
FVII KD % 0.01 mpk [1]: 56% | FVII KD % 0.03 mpk [1]: 76% | EPO exprssn (ng/mL) 0.1 mpk [2]: 1209 ng/mL

CC1CCC(CC(=O)OCC(C)(COC(=O)CCN(CCC(=O)OCC(C)(COC(=O)CC2CCC(C)CC2)COC(=O)CC2CCC(C)CC2)C(=O)SCCCN(C)C)COC(=O)CC2CCC(C)CC2)CC1 (stereo not drawn) [LIPID 21]
FVII KD % 0.01 mpk [1]: 57% | FVII KD % 0.03 mpk [1]: 90% | EPO exprssn (ng/mL) 0.1 mpk [2]: 1028 ng/mL | Percent remaining in mouse plasma after 2 h [3]: 100% | In vivo degradability (ng/tissue) at 48h 0.03 mpk [4]: <340 ng/tissue | In vivo degradability (ng/tissue) at 48h 0.1 mpk [4]: <340 ng/tissue

From patent US20240391870A1 (Arcturus Therapeutics, Inc., priority 2023, published 2024)
